Measurements from patent publication US20250255847A1, “[…]s: Novel Drugs for Triple Negative Breast Cancer” (SIMMARON RSEARCH INC, priority 2024, published 2025).

System: MDA-MB-468 TNBC cells
Assay: Annexin V / propidium iodide dual labeling in MDA-MB-468 cells
Format: cell-based, human
Details: 24 hrs; for membrane labeling of Annexin V and nuclear staining of PI: increasing doses
Protocol: FIG. 11 illustrates an embodiment of the present invention and illustrates SIM-1 and SIM-2 induced apoptosis in MDA-MB-468 TNBC cells, but not HMEC control cells. MDA-MB-468 cells were treated with increasing doses of (A) SIM-1 and (B) SIM-2 for 48 hrs followed by lactate dehydrogenase (LDH) release assay in the supernatants. The result was offset with cell-bound LDH and presented as a percent of DMSO control as discussed under method section. Half-maximal cytotoxicity or CT50 analyses were performed plotting maximum response as an index of increasing doses of (C) SIM-1 and (D) SIM-2. AnnexinV (green) and propidium iodide (red) dual-labeling were performed to evaluate apoptotic response in MDA-MB-468 cells once treated with increasing doses of (E) SIM-1 and (F) SIM-2 for 24 hrs. Nuclei were stained with DAPI. TUNEL assay was performed in MDA-MB-468 cells after treatment with 25 nM of (G) SIM-1. Brown-colored TUNEL bodies were visualized at cresyl violet-stained blue nuclei. (H) The number of TUNEL bodies were counted as a percent of 100 cresyl violet-stained blue cells. Ten independent images were counted for the quantification study. Similarly, SIM-2 was assessed for (I) TUNEL and (J) subsequent quantification analyses. One-way ANOVA was performed to test the significance of mean between groups at **p<0.01 and ****p<0.0001. (K) LDH release assay was performed in non-tumor origin human mammary epithelial cells (HMEC) once treated with increasing doses of SIM-1 and SIM-2 for 48 hrs. Ns=no significance. (L) Annexin V (green) and propidium iodide (red) staining was performed in 25 nM SIM-1- and SIM-2-treated HMEC cells. Nuclei were stained with DAPI. Results are confirmed after three different experiments.
Annexin V/PI Dual Staining Protocol. Annexin V/PI Dual Staining was performed as per manufacturer's instruction (Cat #: 2752665; Vendor: Thermo Fisher Scientific). Chamber slides of MDA-MB-468 cells in serum-free media were treated with SIMPYRA-1 and SIMPYRA-2 at doses of 2 nM, 5 nM, 10 nM, […] 50 nM for 24 hours at 37° C. Each well was washed with 1×PBS, then treated with 1× annexin-binding buffer, 100 ug/mL PI solution, and Annexin V solution. Chamber slides were incubated in the dark at room temperature for 2 hours. Each well was washed twice with 1×PBS and once with 1:500 dilution of DAPI in 1×PBS. Cells were imaged using CaptaVision+™ Software.
This example provides a representative experiment that studies if SIM-1 and SIM-2 promoted the death of TNBC cells. […] During apoptosis, phosphatidyl serine of the plasma membrane flips from the inner to the outer membrane which can be detected by Annexin V labeling, whereas PI stains the nucleus of a cell with compromised integrity of the plasma membrane. […]

| SMILES | concentration of maximum Annexin V / PI labeling | membrane labeling of Annexin V and nuclear staining of PI |
| --- | --- | --- |
| O=C(O)CCC(=O)NCc1csc2ccc(Cl)cc12 [SIM-1, 4-[(5-chloro-1-benzothiophen-3-yl)methylamino]-4-oxobutanoic acid] | 25 nM | dose-dependently increased |
| CCOC(=O)c1c(NC(C)=O)sc2c(Cl)c(/C=N/O)ccc12 [SIM-2, ethyl 2-acetamido-7-chloro-6-(hydroxyiminomethyl)-1-benzothiophene-3-carboxylate] | 25 nM | dose-dependently increased |
